Results from US20220213030A1, “AMINOGUANIDINE HYDRAZONES AS RETROMER STABILIZERS USEFUL FOR TREATING NEUROLOGICAL DISEASES” (OSPEDALE SAN RAFFAELE SRL, priority 2019, published 2022).

Experiments:
[1] = tested on: Golgi apparatus in Neuro2a cells receiving G93A plasmids; assay: Golgi morphology (Golgin97) in Neuro2a cells receiving G93A plasmids; assay type: cell-based, mouse; conditions: 10 μM, 48 hours, G93A-transfected Neuro2a
Text: Pathological alteration of the Golgi apparatus, such as its fragmentation, has been described in many neurodegenerative disorders including ALS. Neuro2a cells transfected with plasmids encoding the G93A mutant form of the SOD1 show alteration of the Golgi transport (Soo, Halloran et al. 2015). Along the same lines, Golgi fragmentation precedes neuromuscular denervation and axon retraction in ALS mice (van Dis, Kuijpers et al. 2014). We transfected Neuro2a cells with plasmids encoding the G93A mutant form of the human SOD1 gene (hereafter G93A) in presence or in absence of compound 2a (10 μM). Cells were harvested after 48 hours, labelled for Golgin-97 and scored for the distribution of trans-Golgi. […] Of note, the fragmentation of Golgi in cells receiving G93A plasmids was not depending on Golgin97 expression levels (FIG. 3A). We speculated that Golgi fragmentation may exacerbate cell death in this cell line. Therefore, we assayed cell survival of Neuro2a transfected with G93A plasmids. Accordingly, cells were transfected with G93A plasmids or with a control plasmid encoding the LacZ. […]
Golgi morphology was assessed in control or in Neuro2a cells receiving G93A plasmids with or without compound 2a (10 μM) according to published methods (Stafa 2012). […] Golgi subclasses were expressed as a percent of the total number of Golgi scored for each experimental condition.

[2] = tested on: Neuro2a cells transfected with G93A plasmids; assay: Cell survival (CCK8) of Neuro2a transfected with G93A plasmids; assay type: cell-based, mouse; conditions: 10 μM
Text: Pathological alteration of the Golgi apparatus, such as its fragmentation, has been described in many neurodegenerative disorders including ALS. Neuro2a cells transfected with plasmids encoding the G93A mutant form of the SOD1 show alteration of the Golgi transport (Soo, Halloran et al. 2015). Along the same lines, Golgi fragmentation precedes neuromuscular denervation and axon retraction in ALS mice (van Dis, Kuijpers et al. 2014). We transfected Neuro2a cells with plasmids encoding the G93A mutant form of the human SOD1 gene (hereafter G93A) in presence or in absence of compound 2a (10 μM). Cells were harvested after 48 hours, labelled for Golgin-97 and scored for the distribution of trans-Golgi. […] Of note, the fragmentation of Golgi in cells receiving G93A plasmids was not depending on Golgin97 expression levels (FIG. 3A). We speculated that Golgi fragmentation may exacerbate cell death in this cell line. Therefore, we assayed cell survival of Neuro2a transfected with G93A plasmids. Accordingly, cells were transfected with G93A plasmids or with a control plasmid encoding the LacZ. […] Rates of cell survival were similar among controls—i.e. cells receiving LacZ plasmids or compound 2a—when compared with untreated cells. On the other hand, the over-expression of G93A plasmids affected Neuro2a cell survival. […]

[3] = Brain uptake of compound 2a in C57BL6J mice (LC-MS/MS); assay type: in vivo; conditions: 10 mg/Kg/day intraperitoneal; 1, 7, 15 and 30 days; saline perfused
Description: We run a pharmacokinetic assay on C57BL6J mice that received daily intraperitoneal injections of compound 2a (10 mg/Kg/day). Mice were sacrificed after 1, 7, 15 and 30 days saline perfused to avoid the CNS contamination of compounds contained in blood circulation and brains used for the determination of compound 2a levels by mass spectrometry.
Healthy mice were daily injected with vehicle or compound 2a (10 mg/kg) and sacrificed after 1, 7, 15 and 30 days. Upon saline perfusion, brains were dissociated from skulls, carefully weighted and rapidly stored in dry ice. Then, brains (˜400 mg) were checked for the presence of Compound 2a. […] After the extraction, each biological sample was re-suspended in 60 μl of LC/MS grade water and 5 μl analyzed by LC-MS/MS using the UPLC 1290 (Agilent Technologies) coupled to the TripleTOF 5600+ mass spectrometer (SCIEX) in positive mode. A Waters ACQUITY UPLC BEH HILIC column (2.1×10 mm, 1.7 μm) was used for the chromatographic separation through a gradient of solvent A (ACN+0.1% FA) and solvent B (H2O+0.1% FA). Calibration curves were constructed by plotting the peak area versus the corresponding concentrations using MultiQuant 2.1 software (SCIEX).

Sortilin = Sortilin MFI in MNs of G93A mice; assay type: in vivo, mouse; conditions: 10 mg/kg, day 100
Text: We next assayed retromer proteins labelling sections of mice sacrificed at day 100 for VPS35 and NeuN. […] Similarly, we observed that VPS26 levels were increased in G93A mice receiving compound 2a (FIG. 11B). We further corroborated our experimental finding observing that compound 2a increased retromer functionality. The cation-independent mannose 6-phosphate receptor (CI-MPR) is a cargo (Arighi et al., 2004) of the retromer complex that is unstable in VPS26 knockout cells (Seaman 2004). We observed a substantial reduction of CI-MPR MFI levels in MNs of vehicle-treated G93A mice when compared with WT litters (FIG. 11C). […]
Fluorescence intensity levels of VPS35, VPS26, Sortilin, CTSD and Ubiquitin were calculated using NHI-Image J software (US National Institutes of Health) according to the following protocol: stacks of confocal images were used to generate the maximal projections (Las-X) and then post-processed by NHI-Image J to crop single NeuN^+ MNs from the ventral horn of the spinal cord. We next performed background (calculated on adjacent slices only receiving secondary antibodies) subtraction for each channel, before applying the NHI-Image J mean filter (with radius 2.0 pixels) to calculate mean NeuN fluorescence levels in individual MN. […] On this selected ROI, we calculated mean fluoresce levels (MFI) of each protein.

Cathepsin D (CTSD) = assay: Cathepsin D expression and maturation in G93A mice; assay type: in vivo, mouse; conditions: 10 mg/kg, day 100
Text: We next investigated Cathepsin D (CTSD) expression and distribution in G93A mice, since it is known that the trafficking of this lysosomal enzyme involves the retromer complex (Seaman 2004). In humans, maturation of CTSD starts with a pre-pro-CTSD that is converted to pro-CTSD (52 kDa) in the endoplasmic reticulum. Recycling of pro-CTSD, and its downstream migration to acidic compartments involves CI-MPR and the retromer pathway. In late endosomes, pro-CTSD is further processed to an intermediate form (48 kDa), and finally converted to mature CTSD (34 kDa) in lysosomes (Laurent-Matha 2006). The inactivation of VPS35 or the knockdown of VPS26 affect the maturation of CTSD. We scored CTSD levels in equal amounts of lumbar SC extracts obtained from vehicle-treated WT, G93A mice receiving the vehicle, and G93A treated with lead 2a. […] We next analyzed CTSD levels in MNs by confocal microscopy. We observed a significant reduction of this protease in MNs of vehicle-treated G93A, while such levels increased in G93A mice treated with compound 2a (FIG. 11F). Similarly, numbers of CTSD^+ puncta in lumbar NeuN^+ MNs were reduced in vehicle-treated G93A MNs, while they increased in compound 2a-treated mice (FIG. 11F).
Fluorescence intensity levels of VPS35, VPS26, Sortilin, CTSD and Ubiquitin were calculated using NHI-Image J software (US National Institutes of Health) according to the following protocol: stacks of confocal images were used to generate the maximal projections (Las-X) and then post-processed by NHI-Image J to crop single NeuN^+ MNs from the ventral horn of the spinal cord. We next performed background (calculated on adjacent slices only receiving secondary antibodies) subtraction for each channel, before applying the NHI-Image J mean filter (with radius 2.0 pixels) to calculate mean NeuN fluorescence levels in individual MN. Using this approach, we established a region of interest (ROI) that gated single MN. On this selected ROI, we calculated mean fluoresce levels (MFI) of each protein.

[4] = tested on: lysosomes in Neuro2a cells receiving G93A plasmids; assay: Lyso-tracker analysis of lysosomes in G93A-transfected Neuro2a; assay type: cell-based, mouse; conditions: 10 μM, 24 hours of starvation
Description: We next determined whether a reduction of VPS35 levels in Neuro2a cells could affect lysosomal homeostasis, mimicking what we and others observed in the ALS mouse model (Cheng 2018). We transfected Neuro2a cells with plasmids encoding the Sh56 RNAi to downregulate VPS35. After 24 hours of starvation, we analyzed the lysosomes using the Lyso-tracker. We observed an enlarged and abnormal distribution of lysosomes in cells with VPS35 interference by Sh56 (FIG. 15A-C). […] We asked whether G93A plasmids would also result in similar lysosomal alterations. We transfected Neuro2a cells with plasmids encoding G93A, with or without compound 2a (10 μM). After 24 hours of starvation, we monitored the lysosomes in such cells with the Lyso-tracker.

N=C(N)NN=Cc1cccc(C=NNC(=N)N)c1 [Compound 2a, 1,3-Bis-amino guanidine phenyl hydrazone]
percentages of cells showing partial or complete fragmentation of the Golgi complex [1]: significantly diminished these percentages
cell survival of G93A-transfected cells [2]: significantly reverted this phenotype
cell survival of cells transfected with G93A and Sh56 (VPS35 RNAi) plasmids ([2]; VPS35 knock down): substantially affected the capability of compound 2a to revert this phenotype
compound levels in the brain (ability to access the CNS) [3]: significant amounts of compound 2a in the brain
Sortilin MFI levels (Sortilin): significantly increased Sortilin levels
CTSD levels in MNs (confocal MFI) (Cathepsin D (CTSD)): increased
levels of mature CTSD (WB, lumbar SC extracts) (Cathepsin D (CTSD)): significantly increased
numbers of CTSD+ puncta in lumbar NeuN+ MNs (Cathepsin D (CTSD)): increased
enlarged lysosomes (Lyso-tracker-covered areas) [4]: significantly reverted this phenotype
